Assays:
Ehrlich ascites cells = test: Loss of viability of Ehrlich ascites cells on incubation; conditions: read-out: reduction of viability of Ehrlich ascites cells
EAC cells = test: Tumor growth inhibition study; conditions: individually, at the concentrations mentioned in Table 7
Experimental: Tumor growth inhibition study: For this study, the total number of EAC cells was counted. The ascites fluid containing cells were quantitatively removed from peritoneal cavity of two mice for a particular drug combination. The cavity was further washed twice with a fixed volume of 0.9% NaCl. The washing and the ascites fluid containing the cells were pooled and centrifuged at 2000×g for 5 min. The packed cell volumes were noted. A fixed amount of aliquot from the packed cells was appropriately diluted, and the number of cells was counted in a hemocytometer. Averages (X^−±SEM) were made of these two parameters, and percentage inhibitions [(1−T/C)×100] were calculated for each dose of different test combinations.

| Compound | cytotoxicity at 200 µM (Ehrlich ascites cells) | effect on EAC cells inoculated mice (EAC cells) |
| --- | --- | --- |
| COc1ccc2[nH]cc(CCNC(C)=O)c2c1 [melatonin] | ~10% |  |
| CN(CC(=O)O)C(=N)N [creatine] |  | no effect |
| O=C1O[C@H]([C@@H](O)CO)C(O)=C1O [ascorbic acid, reference compound] |  | no effect |

— US9198896B2 (priority 2006, dated 2015)
